Measurements as given in patent US20240425491A1, “HETEROARYL COMPOUNDS USEFUL IN THE TREATMENT OF COGNITIVE DISORDERS” (University College Cardiff Consultants Limited, priority 2021, published 2024).

What was measured:
[1] = target: T1, human recombinant GABAAR containing α5β3γ2 subunits (benzodiazepine site) (Homo sapiens, UniProt P18507+P31644); test: In vitro radioligand binding assay (α5-GABAAR Ki); conditions: inhibition of [3H]Ro15-1788 binding, membranes of L(tk−) cells expressing human α5β3γ2; read-out: α5-GABAAR Ki
T1 construct: expressed in transfected cells; host or cells: mouse L(tk−) cells, dexamethasone-inducible vector pMSGneo
T1 sequence (P31644 32-462): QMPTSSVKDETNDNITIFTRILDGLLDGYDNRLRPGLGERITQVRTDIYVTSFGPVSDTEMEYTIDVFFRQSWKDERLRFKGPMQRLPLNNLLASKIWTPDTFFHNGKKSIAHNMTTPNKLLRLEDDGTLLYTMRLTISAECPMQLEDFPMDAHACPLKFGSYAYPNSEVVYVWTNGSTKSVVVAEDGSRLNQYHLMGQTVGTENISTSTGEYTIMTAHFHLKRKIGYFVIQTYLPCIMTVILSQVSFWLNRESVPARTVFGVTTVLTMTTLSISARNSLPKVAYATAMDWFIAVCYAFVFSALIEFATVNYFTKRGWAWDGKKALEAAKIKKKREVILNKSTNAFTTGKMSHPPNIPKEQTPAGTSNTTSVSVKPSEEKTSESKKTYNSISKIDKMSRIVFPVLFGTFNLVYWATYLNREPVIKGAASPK
T1 sequence (P28472 26-473 partner): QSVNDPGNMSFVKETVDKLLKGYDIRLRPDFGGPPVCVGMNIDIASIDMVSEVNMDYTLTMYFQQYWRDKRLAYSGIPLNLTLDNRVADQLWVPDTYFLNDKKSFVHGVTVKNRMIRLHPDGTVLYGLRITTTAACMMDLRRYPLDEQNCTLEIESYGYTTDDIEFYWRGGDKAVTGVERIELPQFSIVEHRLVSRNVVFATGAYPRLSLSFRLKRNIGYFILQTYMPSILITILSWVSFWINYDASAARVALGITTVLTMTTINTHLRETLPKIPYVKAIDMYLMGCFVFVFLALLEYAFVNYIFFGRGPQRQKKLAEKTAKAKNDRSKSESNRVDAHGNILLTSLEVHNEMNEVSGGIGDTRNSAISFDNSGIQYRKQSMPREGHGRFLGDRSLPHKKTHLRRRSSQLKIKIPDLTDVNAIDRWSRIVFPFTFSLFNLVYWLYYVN
T1 sequence (P18507 40-475): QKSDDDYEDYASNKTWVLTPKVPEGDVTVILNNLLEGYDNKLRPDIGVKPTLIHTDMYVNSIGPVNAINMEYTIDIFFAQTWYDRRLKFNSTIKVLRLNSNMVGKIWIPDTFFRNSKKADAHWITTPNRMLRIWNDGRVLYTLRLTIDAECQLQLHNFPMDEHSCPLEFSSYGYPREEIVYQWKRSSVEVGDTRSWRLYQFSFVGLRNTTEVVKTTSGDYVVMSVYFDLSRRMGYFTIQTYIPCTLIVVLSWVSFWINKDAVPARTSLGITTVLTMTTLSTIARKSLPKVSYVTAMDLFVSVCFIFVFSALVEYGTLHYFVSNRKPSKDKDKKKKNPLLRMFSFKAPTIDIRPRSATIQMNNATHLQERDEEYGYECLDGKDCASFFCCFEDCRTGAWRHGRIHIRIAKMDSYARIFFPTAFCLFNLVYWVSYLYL
Outline: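 Membranes from mouse L(tk^−) cells stably expressing human α5β3γ2 GABAAR incubated 1 h at 4° C with 4 nM [^3H]Ro15-1788 and test compound; nonspecific binding with 1 μM TP003. Filter-bound radioactivity counted; Ki from IC50 by Cheng-Prusoff using measured Kd.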

[2] = tested on: mouse hippocampal brain slices (LTP suppressed by etomidate); test: Electrophysiology in hippocampal slices - long term potentiation assay
rat brain α5-GABAARs = target: T2, rat brain α5-GABAARs (Rattus norvegicus, UniProt P18508+P19969); test: In vivo brain receptor occupancy assay ([3H]L-655,708 binding)
T2 construct: from tissue; host or cells: forebrain of male Sprague-Dawley rats, dosed in vivo
T2 sequence (P19969 32-464 limits assumed): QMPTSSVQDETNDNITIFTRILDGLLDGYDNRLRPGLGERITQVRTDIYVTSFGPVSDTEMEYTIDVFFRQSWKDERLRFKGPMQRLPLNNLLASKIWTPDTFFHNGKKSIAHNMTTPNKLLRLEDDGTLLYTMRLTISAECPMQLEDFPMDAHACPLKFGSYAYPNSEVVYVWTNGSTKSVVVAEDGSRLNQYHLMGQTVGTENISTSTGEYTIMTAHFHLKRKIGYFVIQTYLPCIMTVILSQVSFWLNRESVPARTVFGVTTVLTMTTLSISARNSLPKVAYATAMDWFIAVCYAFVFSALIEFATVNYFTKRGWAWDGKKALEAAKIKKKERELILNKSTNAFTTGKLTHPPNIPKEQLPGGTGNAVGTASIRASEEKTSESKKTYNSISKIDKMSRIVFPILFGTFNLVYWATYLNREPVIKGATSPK
T2 sequence (P18508 39-466): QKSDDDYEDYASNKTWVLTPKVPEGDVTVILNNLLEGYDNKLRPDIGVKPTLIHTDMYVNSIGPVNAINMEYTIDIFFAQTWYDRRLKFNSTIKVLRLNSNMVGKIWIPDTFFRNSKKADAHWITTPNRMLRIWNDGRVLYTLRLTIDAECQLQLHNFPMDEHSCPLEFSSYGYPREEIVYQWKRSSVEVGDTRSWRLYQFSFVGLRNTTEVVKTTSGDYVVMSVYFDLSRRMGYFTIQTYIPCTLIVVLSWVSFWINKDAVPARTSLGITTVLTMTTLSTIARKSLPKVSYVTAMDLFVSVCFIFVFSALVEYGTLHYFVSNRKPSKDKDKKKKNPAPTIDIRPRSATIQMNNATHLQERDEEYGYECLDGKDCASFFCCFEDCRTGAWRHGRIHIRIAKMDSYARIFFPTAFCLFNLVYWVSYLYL
Description: The occupancy of rat brain benzodiazepine binding sites by compound was measured by its ability to inhibit the in vivo binding of [^3H] L-655,708. This radioligand is selective for the benzodiazepine site of GABAA receptors containing an α5 subunit (Quirk et al. 2001, Journal of Neurochemistry, 77 445-51) and has been used previously to measure in vivo α5-GABAAR occupancy (Atack et al. 2005, Neuropharmacology, 49 220-229).
[…] To block all benzodiazepine binding sites and therefore define the level of non-specific binding of [^3H] […]
Animals were then killed by stunning and decapitation, the whole brain was rapidly removed, the cerebellum and brainstem were discarded, leaving the forebrain which was weighed and homogenised in 10 volumes of ice-cold homogenising buffer (10 mM potassium phosphate buffer containing 100 mM KCl, pH 7.4). Aliquots of homogenate (500 μL) were then added directly to scintillation vials (total radioactivity) or filtered and washed with 5 ml Tris-HCL buffer (50 mM, pH 7.4) over Whatman glass microfiber GF/B filters. Washed filters were then placed in scintillation vials (three filters per vial) and scintillation fluid was added to all vials, which were then counted on a Perkin-Elmer Tricarb 2900TR scintillation counter (membrane-bound radioactivity). […]

- Ki [1]: 2.9 nM
- occupancy of rat brain α5-GABAARs, dependence on dose (rat brain α5-GABAARs; 3 to 30 mg/kg p.o., FIG. 3): dose-dependent
- receptor occupancy at 10 mg/kg (rat brain α5-GABAARs; po, 10 mg/kg p.o., inhibition of in vivo [3H]L655,708 binding, FIG. 3, read-out: occupancy of rat brain α5 GABAA receptors): 77%
SMILES: COc1nc(-n2ccnc2)ccc1NC(=O)c1c(-c2ccccc2)noc1C [Example 1, N-(6-Imidazol-1-yl-2-methoxy-3-pyridyl)-5-methyl-3-phenyl-isoxazole-4-carboxamide]
- magnitude of LTP (fEPSP slope as % of control fEPSPs prior to 4-TBS vs time) ([2]; 1 μM co-added with etomidate 3 μM, n=6, FIG. 2A): rescued
- fEPSP slope at 50-60 min post-delivery of the 4-TBS ([2]; co-incubation with etomidate, one-way ANOVA, post-hoc Tukey, p<0.05, FIG. 2B): significantly increased fEPSP slope
